Experimental data published in patent US5686424A, “2-oxoethyl derivatives as immunosuppressants” (Miles Inc., priority 1995, dated 1997).
Counter-ions that a name gives are not always drawn. Like-named read-outs stand apart in the source and are kept apart here.

Columns and labels:
[1] = tested on: graft versus host response; assay: Mouse Lymph Node Assay for Modulation of Graft versus Host Response; assay type: in vivo; conditions: mice, 100 mg/kg per day intraperitoneal, after 7 days; popliteal lymph nodes, C57 B1/6-injected limb divided by BDF1-injected limb
Excerpt: 4) Graft versus Host Assay
Transfer of parental strain T-cells (the graft) into F1 hybrid animals (the host) major different with respect to gene products of the histocompatibility complex (MHC) causes a GVHR. This reaction results from recognition of host allogeneic MHC gene products by specific clones of graft T-cells.
When given systemically in sufficient numbers, the graft T-cells cause a progressive, generally fatal, wasting syndrome. A local, nonfatal GVHR, marked by enlargement of the draining popliteal lymph nodes, ensues when graft T-cells are administered via the footpad as described by Ford et al., 1970, Transplantation 10:258. The GVHR is regarded as a correlate of allograft rejections where specific T-cells of either host or allograft origin are activated after recognition of allogeneic MHC gene products, leading to an immune inflammatory response which ultimately results in the destruction (rejection) of the allograft.
Mouse Lymph Node Assay for Modulation of Graft versus Host Response […]
After 7 days, the draining popliteal lymph nodes from the hind limbs were dissected out and weighed. The magnitude of the GVHR was expressed as the ratio of the mean weight of lymph nodes from the limb injected with semi-allogeneic C57 B1/6 cells divided by the mean weight of lymph nodes from the limb injected with syngeneic BDF1 cells.

human T-cells = assay: Suppression of Human T-Cell Proliferation Assay (PHA-stimulated, [3H]-thymidine incorporation); assay type: cell-based; conditions: read-out: IC50
Summary of the method: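 SRBC-rosette-purified human peripheral T-cells stimulated with PHA-M (40 μg/ml stock) and compound dilutions, in duplicate, for 72 h at 37° C. Proliferation measured by [3H]-thymidine incorporation during the final 6 h, read by liquid scintillation counting.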

FKBP = FKBP (Homo sapiens, UniProt P62942); assay: PPIase Inhibition Assay; assay type: biochemical
FKBP, sequence (P62942 whole entry): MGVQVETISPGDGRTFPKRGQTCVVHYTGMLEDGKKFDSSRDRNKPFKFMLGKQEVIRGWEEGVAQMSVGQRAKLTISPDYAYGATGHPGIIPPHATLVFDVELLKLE
Summary of the method: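 Chymotrypsin-coupled isomerization of Succinyl-Ala-Phe-Pro-Phe-para-nitroanilide by FKBP in ice-cold 25 mM HEPES pH 7.8, 100 mM NaCl, compound in DMSO. A390 followed 90 sec; first-order rate constants give % activity remaining after subtracting uncatalyzed rate; IC50 by linear regression of V-/V+ versus concentration.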

NF-AT = NF-AT Inhibition Assay Directed β-Galactosidase Expression in FGL-5 cells; assay type: cell-based
Summary of the method: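 FGL-5 Jurkat cells (3 million cells/ml) carry NF-AT-site-driven lacZ. They were stimulated with phorbol dibutyrate plus ionomycin and incubated with compound 16-18 h at 37 °C, in duplicate wells with matched ethanol or DMSO vehicle controls. β-Galactosidase was read as fluorescence from 4-methylumbelliferyl-β-D-galactoside cleavage, giving percent inhibition.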

[2] = concentration inhibiting [3H]-thymidine incorporation of PHA-stimulated T-cells by 50%, 72 hours, TABLE 2
[3] = concentration of inhibitor required for 50% inhibition of enzyme activity, FKBP, substrate Succinyl-Ala-Phe-Pro-Phe-para-nitroanilide, TABLE I
[4] = 50% inhibition of NF-AT directed β-galactosidase activity in FGL-5 cells stimulated with phorbol dibutyrate and ionomycin, TABLE 3

IC50 (FKBP; [3]) [µM] | IC50 (NF-AT; [4]) [µM] | Compound | Lymph Node Weight Ratio [1] | IC50 (human T-cells; [2]) [µM] | IC50 (NF-AT) [µM] | IC50 (human T-cells) [µM] | IC50 (FKBP) [µM]
0.06 | – | CC[C@H](C)[C@H](NC(=O)[C@@H]1CCCN1CC(=O)C12CC3CC(CC(C3)C1)C2)C(=O)NCc1ccccc1 [Example 24, L-Isoleucine, N-[1-(2-Adamantan-1-yl-2-Oxoethyl)-L-Prolyl] Benzylamide] | 1.2 | 12 | – | – | –
< 5 | > 15 | CC[C@H](C)[C@H](NC(=O)[C@@H]1CCCN1CC(=O)c1ccccc1Oc1ccccc1)C(=O)NCc1ccccc1 [Example 105, L-Isoleucine, N-[1-(2-(2-Phenoxyphenyl)-2-Oxoethyl)-L-Prolyl] Benzylamide] | – | > 15 | – | – | –
< 5 | 14 | CC[C@H](C)[C@H](NC(=O)[C@@H]1CCCN1CC(=O)C1CCc2ccccc2C1)C(=O)NCc1ccccc1 (stereo partly drawn) [Example 43, L-Isoleuclne, N-[1-(2-(1,2,3,4-tetrahydro-Napththalen-2-yl)-2-Oxoethyl)-L-Prolyl] Benzylamide] | – | 16 | – | – | –
0.1 | 17 | CC[C@H](C)[C@H](NC(=O)[C@@H]1CCCN1CC(=O)C12CC3CC(CC(C3)C1)C2)C(=O)N[C@@H](C)c1ccccc1 [Example 65, L-Isoleucine, N-[1-(2-Adamantan-1-yl-2-Oxoethyl)-L-Prolyl] alpha-(S)-methylbenzylamide] | – | 8 | – | – | –

Second part, the compound before the results:

Compound | IC50 (FKBP; [3]) [µM] | IC50 (NF-AT; [4]) [µM] | Lymph Node Weight Ratio [1] | IC50 (human T-cells; [2]) [µM] | IC50 (NF-AT) [µM] | IC50 (human T-cells) [µM] | IC50 (FKBP) [µM]
CC[C@H](C)[C@H](NC(=O)[C@@H]1CCCN1CC(=O)c1ccco1)C(=O)NCc1ccccc1 [Example 37, L-Isoleucine, N-[1-(2-Furan-2-yl-2-Oxoethyl)-L-Prolyl] Benzylamide] | – | – | – | – | > 100 | > 100 | > 50
CC[C@H](C)[C@H](NC(=O)[C@@H]1CCCN1CC(=O)C1CCc2ccccc2O1)C(=O)NCc1ccccc1 (stereo partly drawn) [Example 99, L-Isoleucine, N-[1-(2-(Chroman-2-yl)-2-Oxoethyl)-L-Prolyl] Benzylamide Hydrochloride Salt] | 5 | > 15 | – | > 15 | – | – | –
CC[C@H](C)[C@H](NC(=O)[C@@H]1CCCN1CC(=O)C12CC3CC(CC(C3)C1)C2)C(=O)NCc1ccccc1OC [Example 70, L-Isoleucine, N-[1-(2-Adamantan-1-yl-2-Oxoethyl)-L-Prolyl] 2-methoxybenzylamide] | 0.64 | 16 | – | 7 | – | – | –
COc1cc(C(=O)CN2CCC[C@H]2C(=O)NCCc2ccccc2)cc(OC)c1OC [Example 121, L-Proline, 1-[2-(3,4,5-Trimethoxyphenyl)-2-Oxoethyl] 2-Phenethylamide Hydrochloride] | > 5 | > 15 | – | 7 | – | – | –
COc1cc(C(=O)CN2CCC[C@H]2C(=O)N[C@@H](C)c2ccccc2)cc(OC)c1OC [Example 136, L-Proline, 1-[2-(3,4,5-Trimethoxyphenyl)-2-Oxoethyl] (S)-α-methylbenzylamide Hydrochloride] | > 5 | > 33 | – | 7 | – | – | –
COc1cc(C(=O)CN2CCC[C@H]2C(=O)NCc2ccccc2)cc(OC)c1OC [Example 120, L-Proline, 1-[2-(3,4,5-Trimethoxyphenyl)-2-Oxoethyl] Benzylamide Hydrochloride] | > 5 | > 15 | – | 7 | – | – | –
